Assays:
hCMEC/D3 cells [1] = experiment: Jurkat cell migration across hCMEC/D3 transwell in vitro BBB; assay type: cell-based, human; conditions: hCMEC/D3 on Transwell; migrated cells counted after 24 hours
Excerpt: The blood brain barrier (BBB) is comprised of endothelial cells. During late stages of EAE, lymphocytes are known to cross the BBB. In order to determine if adenosine receptor stimulation of brain endothelial cells could promote lymphocyte migration through the BBB, an in vitro BBB was established. The human brain endothelial cell line hCMEC/D3 (Weksler et al., “Blood-brain Barrier-specific Properties of a Human Adult Brain Endothelial Cell Line,” J. Neurochem. 19(13):1872-4 (2005); Poller et al., “The Human Brain Endothelial Cell Line hCMEC/D3 as a Human Blood-brain Barrier Model for Drug Transport Studies,” J. Neurochem. 107(5):1358-1368 (2008), which are hereby incorporated by reference in their entirety) was obtained, which has been previously described as having BBB properties.
hCMEC/D3 cells were seeded onto Transwell and allowed to grow to confluencey. 2×10^6 Jurkat cells were added to the upper chamber with or without NECA (general adenosine receptor [AR] agonist), CCPA (A1AR agonist), CGS 21680 (A2AAR agonist), or DMSO vehicle. After 24 hours, migrated cells in the lower chamber were counted. Values are relative to the number of cells that migrate through non-HCMECD3 seeded transwells.

blood brain barrier [2] = experiment: Evans Blue dye extravasation across the blood brain barrier after single i.v. treatment; assay type: in vivo, mouse; conditions: 100 μl 0.01 nM single i.v. one hour before dye, brain harvested four hours after dye
Protocol: The objective of this experiment was to determine if the blood brain barrier could be modulated by activation of adenosine receptors. NECA is a non-selective adenosine receptor agonist, with similar affinities for A1, A2a and A3 adenosine receptors and a low affinity for the A2b adenosine receptor. In order to determine if activation of adenosine receptors would induce extravasation of Evans Blue dye across the blood brain barrier (BBB), mice were treated with: NECA, a non-selective adenosine receptor agonist (n=5, 100 μl 0.01 nM); SCH58261, an A2a adenosine receptor specific antagonist (n=5, 1 mg/kg); pertussis toxin, an agent known to induce BBB leakiness and as such used as a positive control (n=7, 200 μl); and, PBS as a vehicle control (n=5, 100 μl). CD73^−/− mice, which lack the ability to produce extracellular adenosine, were also treated with NECA (n=4, 100 μl 0.01 nM). Treatments were administered as a single i.v. injection one hour prior to i.v. injection of 200 μl 1% Evans Blue dye ([…] total dye injected). Four hours after administration of Evans Blue, mice were anesthetized with a ketamine/xylazine mix and perfused via the left ventricle with ice cold PBS. […] Following extraction, the tissue/solvent mixture was centrifuged at 500×g for 30 minutes and 100 μl of supernatant was read on a BioTex spectrophotometer at 620 nm. Data is expressed as μg Evans Blue/ml DMF.

hCMEC/D3 cells [3] = experiment: cAMP levels in hCMEC/D3 cells (cAMP Screen kit); assay type: cell-based, human; conditions: 15 minutes treatment, various concentrations
Protocol: Adenosine receptor activation regulates cAMP levels in cells. In order to determine the sensitivity of human brain endothelial cells to adenosine receptor induced cAMP regulation, human brain endothelial cells were cultured with adenosine receptor agonists at various concentrations, followed by cAMP level analysis, as shown in FIG. 13.
HCMECD3 cells were grown to confluencey on 24 well plates. As adenosine receptor (“AR”) stimulation is known to influence cAMP levels, cells were treated with or without various concentrations of NECA (general AR agonist), CCPA (A1AR agonist), CGS 21680 (A2AAR agonist), DMSO vehicle, or Forksolin (induces cAMP). After 15 minutes, lysis buffer was added and the cells were frozen at −80 C to stop the reaction. Duplicate samples were used for each condition. cAMP levels were assayed using a cAMP Screen kit (Applied Biosystems, Foster City, Calif.).

Z310 cells = experiment: Jurkat cell migration across Z310 choroid plexus cell transwell; assay type: cell-based, murine; conditions: Z310 cells on Transwell; migrated cells counted after 24 hours; n=1
Protocol: The choroid plexus (“CP”) controls lymphocyte migration into the CNS. The CP expresses the A1 and A2a adenosine receptors. EAE is prevented in mice when A2a adenosine receptor activity is blocked. EAE is enhanced when the A1 adenosine receptor is missing. It was hypothesized that A2a adenosine receptor activation promotes lymphocyte migration across the CP. Z310 cells are a murine choroid plexus cell line. To test the hypothesis, Transwell membranes were seeded with Z310 cells and allowed to grow to confluencey. 2×10^6 Jurkat cells were added to the upper chamber with or with out NECA (n=1, general AR agonist), CCPA (n=1, A1AR agonist), CGS 21680 (n=1, A2AAR agonist), or DMSO vehicle(n=1). After 24 hours, migrated cells in the lower chamber were counted. Values are relative to the number of cells that migrate through non-Z310 seeded transwells and the results are shown in FIG. 12.

blood brain barrier [4] = experiment: Evans Blue dye extravasation across the blood brain barrier in mice immunized for EAE; assay type: in vivo, mouse; conditions: WT EAE mice; 100 μl 0.01 nM on day 1, 3, 5, 7, 9; dye on day 10, brain harvested six hours later; vs PBS control EAE mice
Protocol: In order to determine if activation of adenosine receptors would induce extravazation of Evans Blue dye across the blood brain barrier (BBB), mice were first treated on day one with NECA, a non-selective adenosine receptor agonist (n=2, 100 μl 0.01 nM); and, PBS as a vehicle control (n=2, 100 μl). On day 2 mice were then immunized with CFA-MOG35-55 and pertussis to induce EAE. Then NECA or PBS was administered every other day on day 3, day 5, day 7 and day 9. On day 10, mice were injected intravenously with 200 μl 1% Evans Blue dye ([…] total dye injected). Six hours after administration of Evans Blue, mice were anesthetized with a ketamine/xylazine mix and perfused via the left ventricle with ice cold PBS. Brains were harvested and homogenized in n,n-dimethylformamide (DMF) at 5 μl/mg (v:w). Tissue was incubated for 72 hours at room temperature in DMF to extract the dye. Following extraction, the tissue/solvent mixture was centrifuged at 500×g for 30 minutes and 100 μl of supernatant was read on a BioTex spectrophotometer at 620 nm.

## CCNC(=O)[C@H]1O[C@@H](n2cnc3c(N)ncnc32)[C@H](O)[C@@H]1O [NECA]
hCMEC/D3 cells [1]
  lymphocyte (Jurkat) migration across the in vitro BBB: induced some migration
Blood brain barrier [2]; CD73-/- mice, vs PBS control
  Evans Blue dye migration across the blood brain barrier: almost five fold increase in dye migration vs. the PBS control
Blood brain barrier [2]; WT mice, vs control mice
  Evans Blue dye migration across the blood brain barrier: increase over control mice
hCMEC/D3 cells [3]
  cAMP levels: increased cAMP levels
Z310 cells
  lymphocyte (Jurkat) migration across the CP: induced migration
Blood brain barrier [4]
  BBB permeability (Evans Blue dye migration into the CNS): increase in BBB permeability over PBS control EAE mice
